Eleven molecules from ChEMBL document CHEMBL3098005, “Structure activity relationships of fused bicyclic and urea derivatives of spirocyclic compounds as potent CCR1 antagonists” (Bioorg Med Chem Lett, 2014) can be followed below.

For the first series, the target named is Voltage-gated inwardly rectifying potassium channel KCNH2 (Homo sapiens, UniProt Q12809). The series can be described thus: Inhibition of human ERG expressed in HEK cells after 3 hrs by ion flux electrophysiology.
Voltage-gated inwardly rectifying potassium channel KCNH2, sequence (Q12809 whole entry): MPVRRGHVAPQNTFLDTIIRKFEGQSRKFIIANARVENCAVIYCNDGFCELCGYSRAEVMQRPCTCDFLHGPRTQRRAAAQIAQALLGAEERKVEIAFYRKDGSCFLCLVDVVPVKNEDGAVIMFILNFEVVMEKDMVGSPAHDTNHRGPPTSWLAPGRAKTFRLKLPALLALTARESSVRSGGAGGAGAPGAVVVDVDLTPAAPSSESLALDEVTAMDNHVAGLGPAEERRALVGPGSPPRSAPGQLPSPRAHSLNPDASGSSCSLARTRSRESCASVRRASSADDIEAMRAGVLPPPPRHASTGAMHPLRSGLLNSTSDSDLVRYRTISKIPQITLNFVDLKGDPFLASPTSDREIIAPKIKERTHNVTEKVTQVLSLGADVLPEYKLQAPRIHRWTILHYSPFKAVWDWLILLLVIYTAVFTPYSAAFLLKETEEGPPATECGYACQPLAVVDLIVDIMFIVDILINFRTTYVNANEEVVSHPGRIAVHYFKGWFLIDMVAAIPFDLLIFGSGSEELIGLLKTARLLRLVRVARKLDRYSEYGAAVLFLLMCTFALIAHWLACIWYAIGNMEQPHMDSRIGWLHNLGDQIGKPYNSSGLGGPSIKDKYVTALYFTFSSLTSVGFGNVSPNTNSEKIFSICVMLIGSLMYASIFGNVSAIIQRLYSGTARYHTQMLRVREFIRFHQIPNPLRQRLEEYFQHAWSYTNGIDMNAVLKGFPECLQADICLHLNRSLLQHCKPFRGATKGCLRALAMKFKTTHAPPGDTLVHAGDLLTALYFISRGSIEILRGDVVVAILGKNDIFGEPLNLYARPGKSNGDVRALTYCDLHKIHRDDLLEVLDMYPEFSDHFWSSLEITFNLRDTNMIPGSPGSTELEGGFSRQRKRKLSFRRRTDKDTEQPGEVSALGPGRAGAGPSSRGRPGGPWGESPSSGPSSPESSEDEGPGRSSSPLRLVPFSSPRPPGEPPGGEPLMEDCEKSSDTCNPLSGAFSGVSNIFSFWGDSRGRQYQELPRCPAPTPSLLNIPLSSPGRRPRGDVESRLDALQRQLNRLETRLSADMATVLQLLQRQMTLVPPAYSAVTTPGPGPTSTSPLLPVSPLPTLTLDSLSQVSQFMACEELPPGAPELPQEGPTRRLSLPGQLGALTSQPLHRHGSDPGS
Conditions: not given; call rule not given here
`O=C1CCc2cccc(OC[C@@H](O)CN3CCC4(CC3)Cc3cc(Cl)ccc3O4)c2N1` gave an IC50 of 500 nM.

On to `O=C1COc2cccc(OC[C@@H](O)CN3CCC4(CC3)Cc3cc(Cl)ccc3O4)c2N1`, for which the IC50 was 600 nM.

Molecule `NC(=O)Nc1ccc(O)cc1OC[C@@H](O)CN1CCC2(CC1)Cc1cc(Cl)ccc1O2` gave an IC50 greater than 8900 nM.

Molecule `NC(=O)Nc1ccccc1OC[C@@H](O)CN1CCC2(CC1)Cc1cc(Cl)ccc1O2` displayed an IC50 of 400 nM.

The molecule `CNC(=O)Nc1ccc(O)cc1OC[C@@H](O)CN1CCC2(CC1)Cc1cc(F)ccc1O2` returned an IC50 of 13100 nM.

In turn, `CNC(=O)Nc1ccc(O)cc1OC[C@@H](O)CN1CCC2(CC1)Cc1cc(Cl)ccc1O2` yielded an IC50 of 4600 nM.

As to `O=C(Nc1cc(Cl)c(O)cc1OC[C@@H](O)CN1CCC2(CC1)Cc1cc(Cl)ccc1O2)NC1CC1`, half-maximal inhibition (IC50) was put at 1000 nM.

Molecule `N[C@H](COc1cccc2ccc(=O)[nH]c12)CN1CCC2(CC1)Cc1cc(F)ccc1O2` had an IC50 of 1200 nM.

As for `O=C(Nc1ccc(O)cc1OC[C@@H](O)CN1CCC2(CC1)Cc1cc(F)ccc1O2)NC1CC1`, half-maximal inhibition (IC50) was put at 3800 nM.

System in another series: not listed separately
Nature of the series: Permeability across human Caco2 cells. The format is ADME, cell-based. The note with it: Caco-2, read-out: permeability.
For the molecule `O=C(Nc1ccc(O)cc1OC[C@@H](O)CN1CCC2(CC1)Cc1cc(Cl)ccc1O2)NC1CC1`, the Papp was found to be 2.67 ×10⁻⁶ cm/s.

Consider `O=C(Nc1ccccc1OC[C@@H](O)CN1CCC2(CC1)Cc1cc(Cl)ccc1O2)N1CCCC1`, for which the Papp is 3.5 ×10⁻⁶ cm/s.

`O=C1CCc2cccc(OC[C@@H](O)CN3CCC4(CC3)Cc3cc(Cl)ccc3O4)c2N1`: the Papp amounted to 16 ×10⁻⁶ cm/s.

As for `O=C1COc2cccc(OC[C@@H](O)CN3CCC4(CC3)Cc3cc(Cl)ccc3O4)c2N1`, the Papp amounted to 11 ×10⁻⁶ cm/s.

Take `NC(=O)Nc1ccc(O)cc1OC[C@@H](O)CN1CCC2(CC1)Cc1cc(Cl)ccc1O2`: the Papp turned out to be 0.5 ×10⁻⁶ cm/s.

On to `NC(=O)Nc1ccccc1OC[C@@H](O)CN1CCC2(CC1)Cc1cc(Cl)ccc1O2`, for which the Papp came out at 14 ×10⁻⁶ cm/s.

Consider `CNC(=O)Nc1ccc(O)cc1OC[C@@H](O)CN1CCC2(CC1)Cc1cc(Cl)ccc1O2`, for which the Papp is 9 ×10⁻⁶ cm/s.

For the molecule `O=C(Nc1ccc(O)cc1OC[C@@H](O)CN1CCC2(CC1)Cc1cc(F)ccc1O2)NC1CC1`, the Papp amounted to 0.93 ×10⁻⁶ cm/s.

The subject of the next series is Hepatocyte. The series can be described thus: Metabolic stability in human hepatocytes measured per 10^6 cells.
Conditions: not given
It is filed as ADME, cell-based.
`O=C(Nc1ccc(O)cc1OC[C@@H](O)CN1CCC2(CC1)Cc1cc(Cl)ccc1O2)NC1CC1` gave a Stability of 6.4 µL/min.

On to `O=C1CCc2cccc(OC[C@@H](O)CN3CCC4(CC3)Cc3cc(Cl)ccc3O4)c2N1`, for which the Stability result is “Unstable”.

For the molecule `O=C1COc2cccc(OC[C@@H](O)CN3CCC4(CC3)Cc3cc(Cl)ccc3O4)c2N1`, the Stability came to 7.8 µL/min.

`NC(=O)Nc1ccc(O)cc1OC[C@@H](O)CN1CCC2(CC1)Cc1cc(Cl)ccc1O2` had a Stability of less than 3.8 µL/min.

In turn, `NC(=O)Nc1ccccc1OC[C@@H](O)CN1CCC2(CC1)Cc1cc(Cl)ccc1O2` returned a Stability of less than 3 µL/min.

Consider `CNC(=O)Nc1ccc(O)cc1OC[C@@H](O)CN1CCC2(CC1)Cc1cc(F)ccc1O2`, for which the Stability was determined as 10.7 µL/min.

On to `CNC(=O)Nc1ccc(O)cc1OC[C@@H](O)CN1CCC2(CC1)Cc1cc(Cl)ccc1O2`, for which the Stability is 5.4 µL/min.

`O=C(Nc1cc(Cl)c(O)cc1OC[C@@H](O)CN1CCC2(CC1)Cc1cc(Cl)ccc1O2)NC1CC1` gave a Stability of 20.7 µL/min.

Consider `O=C(Nc1ccc(O)cc1OC[C@@H](O)CN1CCC2(CC1)Cc1cc(F)ccc1O2)NC1CC1`, for which the Stability is 5.3 µL/min.

In the next series the target is T1, C-C chemokine receptor type 1 (Rattus norvegicus, UniProt A6I4C9).
T1 sequence (A6I4C9 whole entry): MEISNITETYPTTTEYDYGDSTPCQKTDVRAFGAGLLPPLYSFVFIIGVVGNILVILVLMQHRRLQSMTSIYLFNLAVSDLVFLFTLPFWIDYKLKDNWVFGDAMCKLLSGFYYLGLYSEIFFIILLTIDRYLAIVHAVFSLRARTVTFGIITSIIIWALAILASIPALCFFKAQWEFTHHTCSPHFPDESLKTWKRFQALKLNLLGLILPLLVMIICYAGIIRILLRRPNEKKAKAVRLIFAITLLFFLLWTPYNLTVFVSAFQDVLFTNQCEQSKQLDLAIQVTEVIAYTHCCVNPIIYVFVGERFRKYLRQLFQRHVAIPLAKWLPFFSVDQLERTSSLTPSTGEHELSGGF
Nature of the series: Displacement of [125I]MIP-1alpha from rat CCR1.
Conditions: not given
As for `O=C1CCc2cccc(OC[C@@H](O)CN3CCC4(CC3)Cc3cc(Cl)ccc3O4)c2N1`, the IC50 result is on record as “Not Active”.

Turning to `N[C@H](COc1cccc2ccc(=O)[nH]c12)CN1CCC2(CC1)Cc1cc(F)ccc1O2`, the IC50 result is “Not Active”.

Staying with this series, now noted: read-out: IC50.
For `O=C(Nc1ccc(O)cc1OC[C@@H](O)CN1CCC2(CC1)Cc1cc(Cl)ccc1O2)NC1CC1`, the IC50 amounted to 50 nM.

On to `O=C1COc2cccc(OC[C@@H](O)CN3CCC4(CC3)Cc3cc(Cl)ccc3O4)c2N1`, for which the concentration for half-maximal inhibition (IC50) stood at 1260 nM.

As for `NC(=O)Nc1ccc(O)cc1OC[C@@H](O)CN1CCC2(CC1)Cc1cc(Cl)ccc1O2`, the IC50 was 1580 nM.

On to `NC(=O)Nc1ccccc1OC[C@@H](O)CN1CCC2(CC1)Cc1cc(Cl)ccc1O2`, for which the IC50 amounted to 2110 nM.

Consider `CNC(=O)Nc1ccc(O)cc1OC[C@@H](O)CN1CCC2(CC1)Cc1cc(Cl)ccc1O2`, for which the IC50 came to 1760 nM.

As for `O=C(Nc1cc(Cl)c(O)cc1OC[C@@H](O)CN1CCC2(CC1)Cc1cc(Cl)ccc1O2)NC1CC1`, the IC50 worked out at 16 nM.

Regarding `O=C(Nc1ccc(O)cc1OC[C@@H](O)CN1CCC2(CC1)Cc1cc(F)ccc1O2)NC1CC1`, the IC50 worked out at 101 nM.

For a further series, the target named is T2, C-C chemokine receptor type 1 (Homo sapiens, UniProt P32246).
T2 sequence (P32246 whole entry): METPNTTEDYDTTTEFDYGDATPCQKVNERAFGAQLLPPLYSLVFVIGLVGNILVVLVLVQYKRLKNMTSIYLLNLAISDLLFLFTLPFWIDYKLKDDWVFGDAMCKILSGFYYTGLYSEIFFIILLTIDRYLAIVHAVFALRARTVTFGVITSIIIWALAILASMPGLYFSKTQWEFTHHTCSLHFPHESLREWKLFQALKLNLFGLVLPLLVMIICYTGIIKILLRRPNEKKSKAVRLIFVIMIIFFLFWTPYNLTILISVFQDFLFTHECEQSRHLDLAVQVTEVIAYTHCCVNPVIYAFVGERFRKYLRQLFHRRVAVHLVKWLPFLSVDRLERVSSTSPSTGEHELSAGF
Nature of the series: Displacement of [125I]MIP-1alpha from human recombinant CCR1 expressed in HEK293 cell membranes after 1.5 hrs by microbeta counting analysis.
Conditions: not given
Take `O=C(Nc1ccc(O)cc1OC[C@@H](O)CN1CCC2(CC1)Cc1cc(Cl)ccc1O2)NC1CC1`: the IC50 is 0.89 nM.

In the case of `O=C(Nc1ccccc1OC[C@@H](O)CN1CCC2(CC1)Cc1cc(Cl)ccc1O2)N1CCCC1`, the IC50 is 1.4 nM.

For the molecule `O=C1CCc2cccc(OC[C@@H](O)CN3CCC4(CC3)Cc3cc(Cl)ccc3O4)c2N1`, the IC50 was found to be 32 nM.

As to `O=C1COc2cccc(OC[C@@H](O)CN3CCC4(CC3)Cc3cc(Cl)ccc3O4)c2N1`, the IC50 was determined as 7.1 nM.

Turning to `NC(=O)Nc1ccc(O)cc1OC[C@@H](O)CN1CCC2(CC1)Cc1cc(Cl)ccc1O2`, the IC50 came out at 3.2 nM.

On to `NC(=O)Nc1ccccc1OC[C@@H](O)CN1CCC2(CC1)Cc1cc(Cl)ccc1O2`, for which the IC50 came to 6.7 nM.

As for `CNC(=O)Nc1ccc(O)cc1OC[C@@H](O)CN1CCC2(CC1)Cc1cc(F)ccc1O2`, the IC50 is 3.2 nM.

Take `CNC(=O)Nc1ccc(O)cc1OC[C@@H](O)CN1CCC2(CC1)Cc1cc(Cl)ccc1O2`: the IC50 worked out at 1.3 nM.

In the case of `O=C(Nc1cc(Cl)c(O)cc1OC[C@@H](O)CN1CCC2(CC1)Cc1cc(Cl)ccc1O2)NC1CC1`, the IC50 turned out to be 1.8 nM.

As to `N[C@H](COc1cccc2ccc(=O)[nH]c12)CN1CCC2(CC1)Cc1cc(F)ccc1O2`, the IC50 was found to be 560 nM.

Consider `O=C(Nc1ccc(O)cc1OC[C@@H](O)CN1CCC2(CC1)Cc1cc(F)ccc1O2)NC1CC1`, for which the IC50 was 0.63 nM.

System in another series: not listed separately
Nature of the series: Metabolic stability in human liver microsomes. The format is ADME. The settings on record: read-out: Stability.
With `O=C(Nc1ccc(O)cc1OC[C@@H](O)CN1CCC2(CC1)Cc1cc(Cl)ccc1O2)NC1CC1`, the microsomal CLint is less than 10 µL/min/mg.

For the molecule `O=C(Nc1ccccc1OC[C@@H](O)CN1CCC2(CC1)Cc1cc(Cl)ccc1O2)N1CCCC1`, the microsomal CLint was greater than 200 µL/min/mg.

Turning to `O=C1CCc2cccc(OC[C@@H](O)CN3CCC4(CC3)Cc3cc(Cl)ccc3O4)c2N1`, the microsomal CLint was found to be 65 µL/min/mg.

As for `O=C1COc2cccc(OC[C@@H](O)CN3CCC4(CC3)Cc3cc(Cl)ccc3O4)c2N1`, the microsomal CLint was 33.7 µL/min/mg.

For the molecule `NC(=O)Nc1ccc(O)cc1OC[C@@H](O)CN1CCC2(CC1)Cc1cc(Cl)ccc1O2`, the microsomal CLint was less than 10 µL/min/mg.

Turning to `NC(=O)Nc1ccccc1OC[C@@H](O)CN1CCC2(CC1)Cc1cc(Cl)ccc1O2`, the microsomal CLint was found to be 21.5 µL/min/mg.

On to `CNC(=O)Nc1ccc(O)cc1OC[C@@H](O)CN1CCC2(CC1)Cc1cc(F)ccc1O2`, for which the microsomal CLint was less than 10 µL/min/mg.

Regarding `CNC(=O)Nc1ccc(O)cc1OC[C@@H](O)CN1CCC2(CC1)Cc1cc(Cl)ccc1O2`, the microsomal CLint was less than 10 µL/min/mg.

Take `O=C(Nc1cc(Cl)c(O)cc1OC[C@@H](O)CN1CCC2(CC1)Cc1cc(Cl)ccc1O2)NC1CC1`: the microsomal CLint was less than 11.4 µL/min/mg.

`N[C@H](COc1cccc2ccc(=O)[nH]c12)CN1CCC2(CC1)Cc1cc(F)ccc1O2`: the microsomal CLint was less than 10 µL/min/mg.

Consider `O=C(Nc1ccc(O)cc1OC[C@@H](O)CN1CCC2(CC1)Cc1cc(F)ccc1O2)NC1CC1`, for which the microsomal CLint came out at 15.1 µL/min/mg.
